Laboratory results taken from PubChem BioAssay (NCI).
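How tested: cells in 96-well plates exposed to compound for 48 hours at five concentrations. TGI denotes the concentration required for complete inhibition of growth.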 *1 amine or outer side, *2 acyl side, *3 side chain or, on linkers, in order; H or OH if unused. Where a SMILES comes first, the peptide text is derived from it. The star is where a group is joined. γGlu = O=C(O)[CH](CCC(=O)[*:2])N[*:1]; NHOH = ON*

Key:
Experiment in all cases: growth of human tumour cells (NCI), 48 h
[1] = test system: 786-0 renal
[2] = test system: BT-549 breast
[3] = test system: MDA-MB-435
[4] = test system: MDA-N
[5] = test system: OVCAR-3 ovarian
[6] = test system: OVCAR-5 ovarian
[7] = test system: SF-268 CNS
[8] = test system: SF-539 CNS
[9] = test system: TK-10 renal
[10] = test system: U251 CNS
[11] = test system: UO-31 renal

SMILES	TGI [1] [µM]	TGI [2] [µM]	TGI [3] [µM]	TGI [4] [µM]	TGI [5] [µM]	TGI [6] [µM]	TGI [7] [µM]	TGI [8] [µM]	TGI [9] [µM]	TGI [10] [µM]	TGI [11] [µM]
N#C/C=C(/NC(=O)Nc1ccccc1)N1CCCC1	> 100	> 100	> 100	> 100	> 100	> 100	> 46.4	> 65.7	> 55.4	> 53.8	> 100
CCCCCCCCCCCCCOCCOCCOCCCCC(O)CCCCCCCCCC1=C[C@H](C)OC1=O (some centres not stated)	49.2	27.9	57.1	45.3	44.2	78.7	82.2	45.3	22.5	42.2	44.4
c1ccc(CCCN2C3CCC2CN(CCOC(c2ccccc2)c2ccccc2)C3)cc1	21.6	24.9	29	25.9	30.4	25.8	29.2	22.4	25.6	20.6	24.8
O=[N+]([O-])C1=Cc2c(O)ccc(O)c2C2OC=CC12 (configuration not stated)	32.6	27.9	6.1	11.4	21.3	51.5	35.5	47.5	30.3	32.6	29.7
Nc1nc(N)c2cc(-c3cc4ccccc4[nH]3)ccc2n1	49.6	80.3	38.6	40.7	> 100	65	95.5	51.7	37.2	> 100	32.9
CC(=O)N1N=C(c2ccccc2)NC(=O)C1c1cc(C)c(O)c(C)c1 (configuration not stated)	31.7	54.1	> 100	> 100	36.7	> 100	34.3	40.3	38.2	35	48.9
COP(=O)(OC)[C@@](O)(c1ccccc1)[C@@H](O)[C@H](O)c1ccccc1	> 100	> 100	> 100	> 100	> 100	> 100	> 100	> 100	> 100	> 100	> 100
CSC(=Nc1ccccc1)c1c(C)[nH]n(-c2ccccc2)c1=O	> 100	> 100	> 100	> 100	> 100	> 100	> 100	> 100	> 100	> 100	> 100
CCOP(=O)(OCC)/C(C#N)=C/c1nc[nH]c1C	> 100	> 100	> 100	> 100	> 100	> 100	> 100	> 100	> 100	> 100	> 100
NC(=O)N/N=C(\Cc1cc(=O)oc2cc(O)ccc12)C(=O)Nc1ccccc1C(N)=O	> 100	> 100	> 100	> 100	> 100	> 100	> 100	> 100	> 100	> 100	> 100
CC1=C[C@H](C[C@]2(C)c3c(c4c(C)cccc4oc3=O)O[C@@H]2C)OC1=O	50	74.7	> 100	> 100	> 100	> 100	63.4	> 100	> 100	> 100	> 100
CCN(CC)C1=Nc2ccccc2-n2ccnc2C1	> 100	> 100	> 100	> 100	> 100	> 100	> 100	> 100	> 100	> 100	> 100
Fc1ccc(/C=C2\COCC3=C2NC(=S)NC3c2ccc(F)cc2)cc1 (configuration not stated)	34.4	53.5	33.3	34.2	32.6	47	33.9	36.9	45.5	40.8	33.5
CC(C)(C)c1ccc(O)c(C(O)c2ccccn2)c1 (configuration not stated)	> 100	> 100	> 100	> 100	> 100	89.6	> 100	> 100	> 100	> 100	> 100
CC1=NN(c2ccccc2)C(=O)/C1=C1\SC(c2ccccc2)(c2ccccc2)c2ccccc21	> 100	> 100	> 100	> 100	> 100	> 100	> 100	> 100	> 100	> 100	> 100
O=C1C(NS(=O)(=O)c2ccccc2)=C(n2ccnc2)C(=O)c2ccccc21	> 100	> 100	> 100	> 100	> 100	> 100	> 100	> 100	> 100	> 100	> 100
COc1cc2ncnc(Nc3cccc(Br)c3)c2cc1OC	4.8	> 50.8	49.7	> 42.9	45.4	25	> 89.6	17	13.5	> 46.7	33.6
COc1cc(OC)c(-n2[nH]c(=O)n(C)c2=O)c(OC)c1	> 100	> 100	> 100	> 100	> 100	> 100	> 100	> 100	> 100	> 100	> 100
Cc1ccc(N=NC(=Nc2ccc(F)cc2)c2ccc(N(CCC#N)CCC#N)cc2)cc1	> 100	> 100	> 100	> 100	> 100	> 100	> 100	> 100	> 100	> 100	> 100

SMILES	TGI [1] [µM]	TGI [2] [µM]	TGI [3] [µM]	TGI [4] [µM]	TGI [5] [µM]	TGI [6] [µM]	TGI [7] [µM]	TGI [8] [µM]	TGI [9] [µM]	TGI [10] [µM]	TGI [11] [µM]
O=C1O/C(=C(\Br)c2ccc([N+](=O)[O-])cc2)c2ccccc21	> 100	> 100	> 100	> 100	> 100	> 100	> 100	> 100	> 100	> 100	> 100
O=C(Nc1ccc(Cl)cc1)c1cc(S(=O)(=O)Nc2nc3ncccc3[nH]2)c(SSc2cc(Cl)c(C(=O)Nc3ccc(Cl)cc3)cc2S(=O)(=O)Nc2nc3ncccc3[nH]2)cc1Cl	> 100	> 100	> 100	> 100	> 100	> 100	> 100	> 100	> 100	> 100	> 100
O=c1[nH]nc(-c2ccc3ccccc3c2)[nH]1	> 100	> 100	> 100	> 100	> 100	> 100	> 100	> 100	> 100	> 100	> 100
Cc1ccc(S(=O)(=O)N(CC(O)COc2ccccc2)c2c(F)c(F)c(F)c(F)c2F)cc1 (configuration not stated)	38.8	28.7	34.5	32.7	38.9	34.1	30.9	34.4	71.1	27.9	25.1
CCCCOC(=O)Nc1ccc(S(=O)(=O)Nc2c(Cl)cccc2Cl)cc1	79.5	60.7	72.6	> 100	73.5	> 100	> 100	80	77.9	> 100	61.5
COC(=O)C12C(=O)CC3CCC1C32C(=O)OC (configuration not stated)	> 100	> 100	> 100	> 100	> 100	> 100	> 100	> 100	> 100	> 100	> 100
COc1ccc(C2c3cc4c(cc3OC(N3CCOCC3)C2C)OCO4)cc1OC (configuration not stated)	53.8	> 100	6.25	4.65	13.2	> 100	> 100	22.1	> 88.8	29.5	> 100
O=S(=O)(O)c1cc(O)c(N=NC2S(=O)(=O)OCCOS2(=O)=O)c2ccccc12	> 100	> 100	> 100	> 100	> 100	> 100	> 100	> 100	> 100	> 100	> 100
CC(Nc1cccc(Cl)c1)c1ccncc1 (configuration not stated)	> 100	> 100	> 100	> 100	> 100	> 100	> 100	> 100	> 100	> 100	> 100
OC1C2CN3CCN(C2)CC1(c1ccccc1)C3 (configuration not stated)	> 100	> 100	> 100	> 100	> 100	> 100	> 100	> 100	> 100	> 100	> 100
NC(CCC(=O)NC(CCC(=O)NO)C(=O)NCC(=O)O)C(=O)O (configuration not stated) (γGlu-Glu(NHOH)-Gly-OH; configuration not given here)	> 100	> 100	> 100	> 100	> 100	> 100	> 100	> 100	> 100	> 100	> 100
COC(=O)[C@H](Cc1ccccc1)NC(=O)N(CCN(CCC#N)C(=O)N[C@H](C(=O)OC)C(C)C)c1ccccc1	> 100	> 100	> 100	> 100	> 100	> 100	> 100	> 100	> 100	> 100	> 100
O=C(O)CSC1=NCCN1	> 100	> 100	> 100	> 100	> 100	> 100	> 100	> 100	> 100	> 100	> 100
O=C(CSc1nc2ccccc2c(=O)n1-c1ccccc1)N=Nc1c(O)[nH]c2ccc(Br)cc12	4.33	> 59.6	34	16.9	20	8.53	> 38.3	6.13	12.4	4.26	6.64
COc1nc2ncc([C@@H](OC(C)=O)[C@@H](COC(C)=O)OC(C)=O)nc2c(=O)n1C	> 100	> 100	> 100	> 100	> 100	> 100	> 100	> 100	> 100	> 100	> 100
C[C@]12C(=O)OC[C@H](c3ccccc3)N1C(=O)N(Cc1ccccc1)[C@@H]2CO	> 100	> 100	> 100	> 100	> 100	> 100	> 100	> 100	> 100	–	> 100
CCO/C(O)=c1/s/c(=C2/SC(=S)N(c3ccc(C)cc3)C2=O)n(-c2ccccc2)c1=N	77.4	> 100	> 100	> 100	> 100	> 100	> 95.8	39	> 100	> 100	> 100
CN(C)CC1CCC/C(=C\c2ccc(Cl)c(Cl)c2)C1=O (configuration not stated)	3.42	5.01	18.1	12.7	13.4	37.4	8.88	12.5	8.19	6.52	5.99
CCCCOc1ccc(/C=C/C2=[N+](CCO)CCO2)cc1	> 100	> 100	> 100	> 100	> 100	> 100	> 100	96.2	> 100	> 100	> 100
